From patent US9440966B2, “Compounds for treatment of metabolic syndrome” (SJT MOLECULAR RESEARCH, S.L., priority 2011, dated 2016)
Entries after “also recorded” stand apart in the source; their conditions may differ. Counter-ions that a name gives are not always drawn.

Experiments:
normoglycemic rats [1] = experiment: Oral glucose tolerance test in normoglycemic rats (Examples 27, 28); assay type: in vivo, Male Wistar rats; details: vs control group
Experimental: Male Wistar rats were utilized provided by Mato Grosso do Sul's Federal University's Biotherium. Until the experiments were carried out, the animals have had free access to feed and water. The room temperature was kept at 22±2° C. and the light/dark cycle was of 12 hours.
The glucose tolerance test is a reference method for the diagnosis of diabetes or glucose intolerance (5).
Distinct rat groups were orally treated, once a day, with 3-(carbohydrazyl-N′-phenylsubstituted)-1-benzosubstituted-β-carbolinic-3-carbohydrazide (compound 7a or ANIS-BZ) at doses: 0.5, 1 or 5 mg/kg or vehicle (control) for 3 days. Similarly, another rat group received metformin (reference drug used for lowering glucose serum levels) in a 300 mg/kg dose, orally, once a day for 3 days. The oral glucose tolerance test was carried out by administering of a glucose solution (2 g/kg body mass). Glycemia was determined at zero time (before oral administering) and at 60 minutes after the glucose overload.
Distinct groups of rats were treated orally, once a day, with N(-ethylamine)-1-benzosubstituted-β-carboline-3-carboxamide (compound 4a or ANIS-NH2) at doses: 0.5, 1 or 5 mg/kg, or vehicle for 3 days. Similarly, another group of rats received metformin in a 300 mg/kg dose orally for 3 days once a day. The oral glucose tolerance test was done under the administration of a glucose solution (2 g/kg body mass). Glycemia will be determined at the zero (before oral administration) time and 60 minutes after glucose overload.

SHR hypertensive rats = experiment: Plasma cholesterol levels test in SHR hypertensive rats; assay type: in vivo, Male SHR; details: 25 days of treatment (15 mg/Kg) oral, effect more pronounced for 5a and 7a
Experimental: (§1) Distinct rat groups were orally treated, once a day, with 5 mg/kg of compounds 4a or 5a or 6a during the first 4 days, 10 mg/kg during the next 4 days and 15 mg/kg until the end of the treatment period or vehicle (control) for the same days. Similarly, another rat group received metformin (MET) (reference drug used for lowering glucose serum levels) in a 300 mg/kg dose, orally, from day 1 to the end of the treatment. Plasma cholesterol levels were measured in triplicate 12 hours after drug administration by the cholesterol oxidase/peroxidase method (BioSystems S.A, Barcelona, Spain). Blood samples were obtained by femoral vein punction. This method was chosen because of its noninvasive character, enabling daily measurements with the same rats throughout the entire treatment.
Male SHR were provided by Charles River Laboratories (USA). Until the experiments were carried out, the animals have had free access to feed and water. The room temperature was kept at 22±2° C. and the light/dark cycle was of 12 hours. All procedures were submitted to the Animal Experimentation Ethics Committee.
as §1, with “metformin” for “metformin (MET)”, “Blood pressure was” for “Plasma cholesterol levels were”, “4” for “12”, “administration in warmed warmed, restrained, conscious rats” for “administration”, “tail-cuff” for “cholesterol oxidase/peroxidase”, “with a computerized oscillometric system recorder (Nyprem, Cibertec).” for “(BioSystems S.A, Barcelona, Spain). Blood samples were obtained by femoral vein punction.”

[2] = test system: Drosophila melanogaster (Oregon-R strain); experiment: Toxicology study: larva-to-adult viability and development time
Text: The purpose of this study was to test and compare the potential toxic effects of compounds 5a, 6a and 7a on the larva-to-adult viability and development time in a Drosophila melanogaster (Oregon-R) flies. These studies have a relevant predictive role with the aim to anticipate possible adverse toxicological effects that may happen during preclinical studies with animal, preferably mammals. In addition, the data provided are highly quantitative.
Drosophila melanogaster (Oregon-R) flies were obtained by the University of the Balearic Islands (Spain). […] The larvae were seeded on standard food supplemented with the appropriate dose of compounds tested. Each compound was tested at 1, 10, 100, 1000 and 2000 μg/ml dissolved in standard food.
Fly adults were transferred from the serial transfer system to bottles with fresh food for 24 h. Adults 5 days old were placed on egg collecting devices (layers) containing a mixture of agar, water, acetic acid, and ethyl alcohol, with a drop of active yeast on it. Every 2 h., the layer glasses were changed, in this way, the eggs of a glass have similar age, with a maximum difference of 2 h. among them. The glasses of the layers were kept at 25° C. for at least 22 h. in Petri dishes until larvae hatched. Fifty larvae were picked with a lancet under a stereoscopic microscope and were seeded into 10×2 cm vials with 5 ml food. Vials were supplemented with 4a, 5a and 7a at 1, 10 and 100 μg/ml. As positive control we used cupric acetate (toxic) at 350 μg/ml.
The number of adult flies which emerged from each vial was counted daily until the exhaustion of the culture. The parameters studied were the larvae-to-adult viability (V) and development time.
Viability is expressed as V=NA/NL, where NL is the input number of larvae ([…] in our case) and NA the output number of adults emerging from these NL larvae. Development time was measured in days by the formula DT=ΣNidi/ΣNi where Ni is the number of flies emerging on the day di after the larvae were placed in the medium.
The data are expressed as the mean±SEM values from 3 independent experiments involving triplicate vials at the number of flies indicated.

female Swiss mice = experiment: Acute oral toxicology study in a mice model; assay type: in vivo; details: oral 2000 mg/kg single dose, observation for 14 days
Experimental: The experiments were conducted using female Swiss mice (20-30 g), housed under a 12-h light-dark cycle, with controlled humidity (60-80%), and temperature (22±1° C.). Food and water were freely available to the mice.
Female mice (n=6) were orally (2000 mg/kg) administered with a single dose of 4a, 5a, and 7a for the observation of acute signs of toxicity until 14 days. […] The observations comprised the behavior and manifestations of the toxic symptoms, and were carried out according to the Guidelines of the Organization for Economic Cooperation and Development (OECD, 2008).
All compounds were dissolved in sterile saline and were administered by oral gavage to mice based in the weight, for example 20 g received 20 μL.
The data are expressed as mean±S.E.M. of experiments. Statistical significance was determined through one-way analysis of variances (ANOVA), followed by either Newman-Keuls test. A p<0.05 was considered statistically significant. Graphs were drawn and statistical analysis was carried out using GraphPad Prism version 5.00 for Windows (GraphPad Software, San Diego, Calif., USA).

normoglycemic rats [3] = experiment: Oral glucose tolerance test in normoglycemic rats (Examples 36, 37); assay type: in vivo, Male Wistar rats; details: 10 mg/kg orally, single dose per day
Experimental: Male Wistar rats (200-300 g) were utilized provided by Mato Grosso do Sul's Federal University's Biotherium. Until the experiments were carried out, the animals have had free access to feed and water. The room temperature was kept at 22±2° C. with controlled humidity (60-80%) and the light/dark cycle was of 12 hours.
The glucose tolerance test was evaluated as described by Al-Awaki et al (6).
Rats were randomly divided into […] groups of four animals that were control group that received only a solution of saline, compound 23b group (10 mg/kg), compound 21a group (10 mg/kg) and metformin 300 mg/kg group. Respective treatments were made orally and daily for five days.
(§2) On day 1, 3, and 5, different groups of rats were fasted overnight (at least 12 h) prior to the test, but with given water ad libitum. The oral glucose tolerance test was carried out by administering of a glucose solution (2 g/kg body weight) according to Al-Awadi et al (6). Glycemia was determined in blood samples collected from the tail vein at −30 minutes (just before the administration of the oral extract) time 0 (prior to the glucose overload) and at 60 minutes after the glucose overload. Serum glucose concentrations were measured by the glucose oxidase method (7) using commercial kit (Accuchek-performa (Roche)) according to the manufacture's instructions.
Male Wistar rats (200-300 g) were utilized provided by Mato Grosso do Sul's Federal University's Biotherium. Until the experiments were carried out, the animals have had free access to feed and water. The room temperature was kept at 22±2° C. with controlled humidity (60-80%) and the light/dark cycle was of 12 hours. All procedures were submitted to the Animal Experimentation Ethics Committee.
The compounds 21b, 23a and 23d were diluted firstly in 20 μl of ethanol and after in 980 μl de saline. Compounds 21e, 23e and 26b were dissolved in sterile saline and were administered by oral gavage to rats based in the weight, for example 200 g received 200 μL.
54 rats were randomly divided into […] groups of five-eight animals that were control group (n=8) that received only a solution of vehicle, compound 21b group (n=5) (10 mg/kg), compound 21e group (n=5) (10 mg/kg), compound 23e group (n=5) (10 mg/kg), compound 23a group (n=5) (10 mg/kg), compound 23d group (n=5) (10 mg/kg), compound 26b group (n=5) (10 mg/kg) and metformin (n=6) 300 mg/kg group. Respective treatments were made orally and daily for five days.
as §2, with “manufactures's” for “manufacture's”

[4] = fifth day, in relation to control group

COc1ccc(-c2nc(C(=O)N/N=C/c3ccccc3)cc3c2[nH]c2ccccc23)cc1 [Compound 7a, 3-(carbohydrazyl-N′-phenylsubstitute)-1-benzosubstitute-β-carbolinic-3-carbohydrazide]
glycemic levels of animals that received an oral glucose overload (normoglycemic rats [1]; after 3 days, 0.5 mg/kg oral once a day): only the 1 and 5 mg/kg doses reduced statistically significant the glycemic levels
glycemic levels of animals that received an oral glucose overload (normoglycemic rats [1]; after 3 days, 1 mg/kg oral once a day): reduced statistically significant the glycemic levels
glycemic levels of animals that received an oral glucose overload (normoglycemic rats [1]; after 3 days, 5 mg/kg oral once a day, 5 mg/kg): reduces the glycemic levels; also recorded: reduced statistically significant the glycemic levels
glycemic levels of animals that received an oral glucose overload (normoglycemic rats [1]; first day, 5 mg/kg oral, 60 min after glucose 2 g/kg): reduces the glycemic levels
plasma cholesterol levels (SHR hypertensive rats): inhibition of plasma cholesterol levels
larvae-to-adult viability and development time ([2]; in vivo): not affected
mortality or behavioral disorders (acute signs of toxicity) (female Swiss mice): did not produce mortality or any behavioral disorders

Cl.NCCNC(=O)c1cc2c([nH]c3ccccc32)c(-c2ccc(Cl)cc2)n1 [Compound 21b, N-(2-aminoethyl)-1-(4-chlorophenyl)-9H-pyrido[3,4-b]indole-3-carboxamide]
glucose levels in oral glucose tolerance test (normoglycemic rats [3]; [4]): reduced the glucose levels

COc1ccc(-c2nc(C(=O)N3CCOCC3)cc3c2[nH]c2ccccc23)cc1.Cl [Compound 23a, [1-(4-methoxyphenyl)-9H-pyrido[3,4-b]indol-3-yl]-4-morpholinyl-Methanone Hydrochloride]
glucose levels in oral glucose tolerance test (normoglycemic rats [3]; first day): significant reduction in glucose levels

COc1ccc(-c2nc(C(=O)NCCN(C)C)cc3c2[nH]c2ccccc23)cc1 [Compound 23b, N-(2-dimethylaminoethyl)-1-(4-methoxyphenyl)-9H-pyrido[3,4-b]indole-3-carboxamide hydrochloride]
glucose levels in oral glucose tolerance test (normoglycemic rats [3]; [4]): reduced the glucose levels
glucose levels in oral glucose tolerance test (normoglycemic rats [3]; third day): significant reduction in glucose levels

COc1ccc(-c2nc(C(=O)NCCO)cc3c2[nH]c2ccccc23)cc1.Cl [Compound 23d, N-(2-hydroxyethyl)-1-(4-methoxyphenyl)-9H-pyrido[3,4-b]indole-3-carboxamide hydrochloride]
glucose levels in oral glucose tolerance test (normoglycemic rats [3]; [4]): reduced the glucose levels

COc1ccc(-c2nc(C(=O)NCCCCN)cc3c2[nH]c2ccccc23)cc1.Cl [Compound 23e, N-(4-aminobutyl)-1-(4-methoxyphenyl)-9H-pyrido[3,4-b]indole-3-carboxamide hydrochloride]
glucose levels in oral glucose tolerance test (normoglycemic rats [3]; [4]): reduced the glucose levels
glucose levels in oral glucose tolerance test (normoglycemic rats [3]; first day): significant reduction in glucose levels
glucose levels in oral glucose tolerance test (normoglycemic rats [3]; third day): significant reduction in glucose levels

CC(=O)[O-].CC(=O)[O-].[Cu+2] [Cupric acetate, cupric acetate, reference compound]
Larva-to-adult viability (% emerged adult flies) ([2]; 350 μg/ml, positive control (toxic)): 0%
